Source: publication PMC10338423, “Synthesis and preclinical evaluation of a novel fluorine-18 labeled small-molecule PET radiotracer for imaging of CXCR3 receptor in mouse models of atherosclerosis” (EJNMMI Research, 2023)

Assays:
[1] = molecular target: human CXCR3; set-up: method as in PMID 24174496, PMID 25576486; settings: cited from earlier work
[2] = molecular target: T1, CXCR3A (Homo sapiens, UniProt P49682); experiment: Competition binding assay with [125I]CXCL10 on membranes of CXCR3A-transfected HEK293 cells; settings: 80 pM 125I-CXCL10, Cheng-Prusoff
T1 construct: crude membranes
T1 sequence (P49682 1-368): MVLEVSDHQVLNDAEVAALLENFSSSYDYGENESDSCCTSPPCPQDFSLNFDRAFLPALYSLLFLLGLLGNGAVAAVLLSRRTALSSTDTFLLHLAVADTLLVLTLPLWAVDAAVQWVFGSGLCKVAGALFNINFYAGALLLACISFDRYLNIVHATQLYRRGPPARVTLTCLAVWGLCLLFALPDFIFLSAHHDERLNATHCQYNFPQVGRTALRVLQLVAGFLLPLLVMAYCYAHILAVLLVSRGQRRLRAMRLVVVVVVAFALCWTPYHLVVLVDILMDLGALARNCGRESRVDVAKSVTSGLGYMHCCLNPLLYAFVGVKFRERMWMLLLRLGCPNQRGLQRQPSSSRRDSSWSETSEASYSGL
Description: (§1) The equilibrium inhibition constants (Ki) value of 1 at CXCR3 receptor was measured through competition binding assay using NBI74330 (Tocris Bioscience, Bristol, UK), an antagonist of CXCR3 receptor, [^125I]CXCL10 (ViTrax Inc., Placentia, CA) and CXCR3 transfected human embryonic kidney (HEK) 293 cells. CXCR3 has two major variants, CXCR3A and CXCR3B, with distinctive biological roles, so two types of HEK293 cells containing each CXCR3 variant were prepared. Before the cell-binding assay, two cDNA constructs containing CXCR3 transcript variant A (CXCR3A, GenBank accession No. NM_001504; GenScript) and CXCR3 transcript variant B (CXCR3B, GenBank accession No. NM_001142797; GenScript) and HEK293 cells were purchased from GenScript Biotech (Piscataway, NJ) and ATCC (Manassas, VA), respectively. Then the cDNA constructs were transfected to HEK293 cells, and the transfected cells were cultured to get enough amount for the cell-binding assay. […] The IC50 value of 1 was measured based on the regression plot between the […] radioligand and the different concentrations of 1. […]
(§2) Radioligand binding was performed using crude HEK293 membranes overexpressing CXCR3A or CXCR3B as previously described. […] The Ki values of each competitive antagonist for specific ^125I-CXCL10 binding sites were calculated using the method of Cheng and Prusoff, as previously described. […]

[3] = molecular target: T2, CXCR3B (Homo sapiens, UniProt P49682); experiment: Competition binding assay with [125I]CXCL10 on membranes of CXCR3B-transfected HEK293 cells; settings: 80 pM 125I-CXCL10, Cheng-Prusoff
T2 construct: crude membranes
T2 sequence (P49682 1-415 isoform P49682-2): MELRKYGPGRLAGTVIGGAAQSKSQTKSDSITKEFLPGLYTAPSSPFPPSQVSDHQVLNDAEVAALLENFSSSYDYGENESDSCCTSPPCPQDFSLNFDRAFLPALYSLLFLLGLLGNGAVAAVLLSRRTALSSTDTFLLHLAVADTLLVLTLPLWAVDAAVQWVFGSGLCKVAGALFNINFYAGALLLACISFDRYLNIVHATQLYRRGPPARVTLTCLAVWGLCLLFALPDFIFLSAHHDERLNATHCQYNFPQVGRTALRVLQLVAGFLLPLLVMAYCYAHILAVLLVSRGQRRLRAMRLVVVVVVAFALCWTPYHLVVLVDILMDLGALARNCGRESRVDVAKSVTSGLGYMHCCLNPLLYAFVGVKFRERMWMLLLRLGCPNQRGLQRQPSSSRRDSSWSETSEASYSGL
Description: as §1, §2

[4] = tested on: CXCR3; set-up: method as in PMID 24486132; settings: read-out: binding affinity IC50; cited from earlier work

| Ki [2] | Ki [3] | SMILES | Kd [1] | IC50 [4] |
| --- | --- | --- | --- | --- |
| – | – | CCNC(=O)c1cnc(N2CCN(C3CCN(Cc4ccc(Cl)cc4)CC3)[C@@H](CC)C2)c(Cl)c1 [VUF11211] | 0.65 nM | – |
| 0.81 ± 0.02 nM | 0.31 ± 0.02 nM | CC[C@H]1CN(c2ncc(-c3nnco3)cc2Cl)CCN1C1CCN(Cc2ccc(Cl)cc2F)CC1 [compound 1, (S)-2-(5-chloro-6-(4-(1-(4-chloro-2-fluorobenzyl)piperidin-4-yl)-3-ethylpiperazin-1-yl)pyridin-3-yl)-1,3,4-oxadiazole] | – | 0.8 nM |
